According to ChEMBL document CHEMBL1201862, “PubChem BioAssay data set” (2004):
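Five compound concentrations were applied to cells in 96-well plates for 48 hours; endpoints were derived by simple linear interpolation of the resulting dose-response curve. GI50: concentration for 50% inhibition of growth.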 The source made the active and inactive calls. Cut-off read from the data, not from the text of the source: active = GI50 up to about 1.1 µM and inactive = higher. Positions of bridges follow the written chain, without caps; N, C: chain ends. Non-standard residues stand in square brackets, D forms with d. Residues, ends and D or L forms follow the SMILES beside them. Aib = CC(C)(N)C(=O)O; βAla = NCCC(=O)O

What was measured:
Assay in all cases: NCI-60 cell line screen, 48 h
[1] = test system: TK-10
[2] = test system: HL-60
[3] = test system: HCT-116
[4] = test system: NCI-H23
[5] = test system: U-251
[6] = test system: SF-268
[7] = test system: A549
[8] = test system: BT-549
[9] = test system: SK-OV-3
[10] = test system: MCF7
[11] = test system: SW-620
[12] = test system: MDA-MB-231
[13] = test system: EKVX
[14] = test system: SN12C
[15] = test system: SR
[16] = test system: HOP-62
[17] = test system: RPMI-8226

| SMILES | GI50 [1] | GI50 [2] | GI50 [3] | GI50 [4] | GI50 [5] | GI50 [6] | GI50 [7] | GI50 [8] | GI50 [9] | GI50 [10] | GI50 [11] | GI50 [12] | GI50 [13] | GI50 [14] | GI50 [15] | GI50 [16] | GI50 [17] |
| --- | --- | --- | --- | --- | --- | --- | --- | --- | --- | --- | --- | --- | --- | --- | --- | --- | --- |
| CC1C2(C)OCC(C#N)(C(=N)O2)C1(C#N)C#N (stereo not given) | 37.1 µM (inactive) | 15.6 µM (inactive) | 18.3 µM (inactive) | 29.3 µM (inactive) | 16.3 µM (inactive) | 22.8 µM (inactive) | > 100 µM (inactive) | 35.2 µM (inactive) | > 100 µM (inactive) | 20.7 µM (inactive) | 25.9 µM (inactive) | 17.9 µM (inactive) | 19.1 µM (inactive) | 15.7 µM (inactive) | – | – | – |
| C=CCC1(Sc2ccccn2)Sc2ccc3ccccc3c2-c2c(ccc3ccccc23)S1 | > 100 µM (inactive) | > 100 µM (inactive) | > 100 µM (inactive) | > 100 µM (inactive) | > 100 µM (inactive) | > 100 µM (inactive) | > 100 µM (inactive) | – | > 100 µM (inactive) | > 100 µM (inactive) | > 100 µM (inactive) | > 100 µM (inactive) | > 100 µM (inactive) | > 100 µM (inactive) | > 100 µM (inactive) | > 100 µM (inactive) | – |
| COc1ccc(CCCNC(=O)Cc2cc(OC)c(OC)cc2CO)cc1OC | > 100 µM (inactive) | > 100 µM (inactive) | > 100 µM (inactive) | 75 µM (inactive) | > 100 µM (inactive) | – | > 100 µM (inactive) | > 100 µM (inactive) | – | – | > 100 µM (inactive) | > 100 µM (inactive) | > 100 µM (inactive) | > 100 µM (inactive) | > 100 µM (inactive) | > 100 µM (inactive) | – |
| CC(C)NC(=O)OCCN=C1c2ccccc2C(Br)C(Br)c2ccccc21 (stereo not given) | 5.87 µM (inactive) | 1.05 µM (active) | 7.01 µM (inactive) | 15.6 µM (inactive) | 10 µM (inactive) | 14.4 µM (inactive) | 24.7 µM (inactive) | 10.4 µM (inactive) | 26.1 µM (inactive) | 12.1 µM (inactive) | 3.76 µM (inactive) | 11.5 µM (inactive) | 9.06 µM (inactive) | 12.6 µM (inactive) | – | 14.5 µM (inactive) | 7.83 µM (inactive) |
| NC1=CN(Cc2ccccc2)C2=N/C(=C\c3ccccc3)C(=O)N12 | > 100 µM (inactive) | 26.1 µM (inactive) | > 100 µM (inactive) | > 100 µM (inactive) | > 100 µM (inactive) | > 100 µM (inactive) | > 100 µM (inactive) | > 100 µM (inactive) | > 100 µM (inactive) | > 100 µM (inactive) | > 100 µM (inactive) | > 100 µM (inactive) | > 100 µM (inactive) | > 100 µM (inactive) | – | > 100 µM (inactive) | 71.3 µM (inactive) |
| Nc1nc(N)c2nc(CNc3ccc(C(=O)NC(CCC(=O)O)C(=O)O)cc3F)cnc2n1 (stereo not given) | > 100 µM (inactive) | < 0.01 µM (active) | < 0.01 µM (active) | < 0.01 µM (active) | < 0.01 µM (active) | < 0.01 µM (active) | < 0.01 µM (active) | – | > 100 µM (inactive) | < 0.01 µM (active) | < 0.01 µM (active) | > 57.9 µM (inactive) | < 0.01 µM (active) | < 0.01 µM (active) | < 0.01 µM (active) | < 0.01 µM (active) | < 0.01 µM (active) |
| C/C(=N/c1[nH]c(=O)cc2c1C(=O)CC2)N(C)C | > 200 µM (inactive) | > 200 µM (inactive) | > 200 µM (inactive) | > 200 µM (inactive) | > 200 µM (inactive) | > 200 µM (inactive) | > 200 µM (inactive) | > 200 µM (inactive) | > 200 µM (inactive) | > 200 µM (inactive) | > 200 µM (inactive) | > 200 µM (inactive) | > 200 µM (inactive) | > 200 µM (inactive) | – | > 200 µM (inactive) | > 200 µM (inactive) |
| CS/C(=N\S(=O)(=O)c1ccc(Cl)cc1)NCCCCN/C(=N/S(=O)(=O)c1ccc(Cl)cc1)SC | > 100 µM (inactive) | > 100 µM (inactive) | > 100 µM (inactive) | – | 69.5 µM (inactive) | 32.5 µM (inactive) | – | – | – | > 100 µM (inactive) | > 100 µM (inactive) | > 100 µM (inactive) | > 100 µM (inactive) | > 100 µM (inactive) | > 100 µM (inactive) | > 100 µM (inactive) | > 100 µM (inactive) |
| Cc1ccc(NC(=O)/C(Cc2nc3ccc([N+](=O)[O-])cc3nc2O)=N\NC(=O)C[n+]2ccccc2)c(C)c1 | 21.2 µM (inactive) | 30 µM (inactive) | 36.2 µM (inactive) | 65.6 µM (inactive) | 53.6 µM (inactive) | 67.5 µM (inactive) | 23.3 µM (inactive) | > 100 µM (inactive) | 22.4 µM (inactive) | 38.5 µM (inactive) | 61.1 µM (inactive) | 18.4 µM (inactive) | 26.7 µM (inactive) | 32.1 µM (inactive) | – | 38.9 µM (inactive) | – |
| CS/C(=N\C#N)NC1CC(n2cc(C)c(=O)[nH]c2=O)OC1CO (stereo not given) | > 100 µM (inactive) | > 100 µM (inactive) | > 100 µM (inactive) | > 100 µM (inactive) | > 100 µM (inactive) | > 100 µM (inactive) | > 100 µM (inactive) | – | > 100 µM (inactive) | > 100 µM (inactive) | > 100 µM (inactive) | > 100 µM (inactive) | > 100 µM (inactive) | > 100 µM (inactive) | – | > 100 µM (inactive) | – |
| O=C([O-])C(O)C(O)C(O)C(O)C(=O)O.[K+] (stereo not given) | – | 76.2 µM (inactive) | > 100 µM (inactive) | > 100 µM (inactive) | > 100 µM (inactive) | > 100 µM (inactive) | > 100 µM (inactive) | – | > 100 µM (inactive) | > 100 µM (inactive) | > 100 µM (inactive) | > 100 µM (inactive) | > 100 µM (inactive) | > 100 µM (inactive) | > 100 µM (inactive) | > 100 µM (inactive) | – |
| CC(C)[C@@H]1NC(=O)[C@@H]2N=C(O[C@H]2C)[C@H](C(C)C)NC(=O)C2N=C1O[C@H]2C | > 100 µM (inactive) | > 100 µM (inactive) | > 100 µM (inactive) | > 100 µM (inactive) | – | > 100 µM (inactive) | > 100 µM (inactive) | – | – | > 100 µM (inactive) | > 100 µM (inactive) | > 100 µM (inactive) | > 100 µM (inactive) | > 100 µM (inactive) | > 100 µM (inactive) | > 100 µM (inactive) | > 100 µM (inactive) |
| CC1(C)NC(=O)C(NC(=O)C(N)CC(=O)O)CCCCNC(=O)CCNC1=O (stereo not given) (H-DK[Aib][βAla]; lactam 2-C; configuration not given here) | > 100 µM (inactive) | – | > 100 µM (inactive) | > 100 µM (inactive) | > 100 µM (inactive) | > 100 µM (inactive) | > 100 µM (inactive) | > 100 µM (inactive) | > 100 µM (inactive) | > 100 µM (inactive) | > 100 µM (inactive) | > 100 µM (inactive) | > 100 µM (inactive) | – | – | > 100 µM (inactive) | > 100 µM (inactive) |
